Earlier results as cited in PubChem BioAssay AID1259409 (Chemical Carcinogenesis Research Information System (CCRIS), 2018).

Test system: rodent chemically induced tumor inhibition, incidence and multiplicity
Test: CCRIS tumor inhibitor studies
Conditions: Carcinogen: 7,12-DIMETHYLBENZ[A]ANTHRACENE, 57-97-6, Route [Inhibitor]: DERMAL, Species: MOUSE, Target Tissue: Type of Lesion: SKIN: PAPILLOMA, Dose [Carcinogen]: 200 NMOL IN 0.2 ML ACETONE ONCE, Promoter: 12-O-TETRADECANOYLPHORBOL-13-ACETATE, 16561-29-8

Question: For C/C(=C\c1ccc(C(=O)O)cc1)c1cc2c(s1)CCCC2(C)C, which “tumour outcome (control, treated, inhibition, significance)” value (Dose [Inhibitor]: 0.17 NMOL IN 0.2 ML ACETONE 1 HR PRIOR TO EACH PROMOTER DOSE FOR 12 WK (STUDY DURATION: 14 WK), Strain/Sex: SENCAR/FEMALE) is on record?
Answer: 100%, 100%, 0%, not calculated

Question: What about the “tumour outcome (control, treated, inhibition, significance)” value (Dose [Inhibitor]: 0.17 NMOL IN 0.2 ML ACETONE 1 HR PRIOR TO EACH PROMOTER DOSE FOR 20 WK (STUDY DURATION: 22 WK), Strain/Sex: CD-1/FEMALE) of the same compound?
Answer: 94%, 89%, 5%, not calculated

Question: What about the “tumour outcome (control, treated, inhibition, significance)” value (Dose [Inhibitor]: 1.7 NMOL IN 0.2 ML ACETONE 1 HR PRIOR TO EACH PROMOTER DOSE FOR 12 WK (STUDY DURATION: 14 WK), Strain/Sex: SENCAR/FEMALE) of the same compound?
Answer: 100%, 80%, 20%, not calculated

Question: And the “tumour outcome (control, treated, inhibition, significance)” value (Dose [Inhibitor]: 1.7 NMOL IN 0.2 ML ACETONE 1 HR PRIOR TO EACH PROMOTER DOSE FOR 20 WK (STUDY DURATION: 22 WK), Strain/Sex: CD-1/FEMALE)?
Answer: 94%, 52%, 45%, not calculated

Question: And the “tumour outcome (control, treated, inhibition, significance)” value (Dose [Inhibitor]: 17 NMOL IN 0.2 ML ACETONE 1 HR PRIOR TO EACH PROMOTER DOSE FOR 12 WK (STUDY DURATION: 14 WK), Strain/Sex: SENCAR/FEMALE)?
Answer: 100%, 3%, 97%, not calculated

Question: What about the “tumour outcome (control, treated, inhibition, significance)” value (Dose [Inhibitor]: 17 NMOL IN 0.2 ML ACETONE 1 HR PRIOR TO EACH PROMOTER DOSE FOR 20 WK (STUDY DURATION: 22 WK), Strain/Sex: CD-1/FEMALE) of the same compound?
Answer: 94%, 0%, 100%, not calculated
